# Source: US20120094998A1, “Oligomer-Protein Tyrosine Kinase Inhibitor Conjugates” (Nektar Therapeutics, priority 2009, published 2012)
# Legend:
# [1] = Caco-2 permeability (bi-directional; pH 7.4/pH 7.4); format: in vitro ADME; conditions: human
# Protocol: Caco-2 cells are used as an in vitro model of the human intestinal epithelium and permit assessment of the intestinal permeability of potential drugs. Test compound is added to either the apical or basolateral side of a confluent monolayer of Caco-2 cells and permeability is measured by monitoring the appearance of the test compound on the opposite side of the membrane using LC-MS/MS. Apparent permeability (Papp) coefficients, efflux ratio for the test compound and recovery values were determined.
# To measure the permeability of test compound in the apical to basolateral (A-B) and basolateral to apical (B-A) direction across Caco-2 cells.
# Caco-2 cells obtained from the ATCC are used between passage numbers 40-60. Cells are seeded on to Millipore Multiscreen Caco-2 plates at 1×10^5 cells/cm^2. They are cultured for 20 days in DMEM and media is changed every two or three days. On day 20 the permeability study is performed.
# On day 20, the monolayers are prepared by rinsing both basolateral and apical surfaces twice with HBSS at 37° C. Cells are then incubated with HBSS in both apical and basolateral compartments for 40 min to stabilize physiological parameters. HBSS is then removed from the apical compartment and replaced with test compound dosing solutions. […] The fluorescent integrity marker lucifer yellow is also included in the dosing solution. Analytical standards are made from dosing solutions. The apical compartment inserts are then placed into ‘companion’ plates containing fresh HBSS. For basolateral to apical (B-A) permeability determination the experiment is initiated by replacing buffer in the inserts then placing them in companion plates containing dosing solutions. At 120 minutes the companion plate is removed and apical and basolateral samples diluted for analysis by LC-MS/MS. Test compound permeability was assessed in duplicate. On each plate, compounds of known permeability characteristics were run as controls.
# Test and control compounds were quantified by LC-MS/MS cassette analysis using a 5-point calibration with appropriate dilution of the samples. Cyprotex generic analytical conditions were used. The starting concentration (C0) and experimental recovery were calculated from both apical and basolateral compartment concentrations.
# The integrity of the monolayers throughout the experiment was checked by monitoring lucifer yellow permeation using fluorimetric analysis. Lucifer yellow permeation is low if monolayers have not been damaged. […] If lucifer yellow Papp values are above QC limits in both replicate wells for a test compound, the compound was re-tested.
# Data Analysis: The permeability coefficient for each compound (Papp) is calculated from the following equation: […]
# wherein dQ/dt is the rate of permeation of the drug across the cells, C0 is the donor compartment concentration at time zero and A is the area of the cell monolayer. C0 is obtained from analysis of donor and receiver compartments at the end of the incubation period. It is assumed that all of the test compound measured after 120 minutes incubation was initially present in the donor compartment at 0 minutes. An efflux ratio (ER) is derived as follows:
# Talinolol (a known P-gp substrate) is also included as a control compound to assess whether functional P-gp is present in the Caco-2 cell monolayer.
# [2] = molecular target: ABL (Homo sapiens, UniProt P00519); experiment: Off-chip mobility-shift kinase assay (Caliper LABCHIP), ABL
# ABL, sequence (P00519 whole entry): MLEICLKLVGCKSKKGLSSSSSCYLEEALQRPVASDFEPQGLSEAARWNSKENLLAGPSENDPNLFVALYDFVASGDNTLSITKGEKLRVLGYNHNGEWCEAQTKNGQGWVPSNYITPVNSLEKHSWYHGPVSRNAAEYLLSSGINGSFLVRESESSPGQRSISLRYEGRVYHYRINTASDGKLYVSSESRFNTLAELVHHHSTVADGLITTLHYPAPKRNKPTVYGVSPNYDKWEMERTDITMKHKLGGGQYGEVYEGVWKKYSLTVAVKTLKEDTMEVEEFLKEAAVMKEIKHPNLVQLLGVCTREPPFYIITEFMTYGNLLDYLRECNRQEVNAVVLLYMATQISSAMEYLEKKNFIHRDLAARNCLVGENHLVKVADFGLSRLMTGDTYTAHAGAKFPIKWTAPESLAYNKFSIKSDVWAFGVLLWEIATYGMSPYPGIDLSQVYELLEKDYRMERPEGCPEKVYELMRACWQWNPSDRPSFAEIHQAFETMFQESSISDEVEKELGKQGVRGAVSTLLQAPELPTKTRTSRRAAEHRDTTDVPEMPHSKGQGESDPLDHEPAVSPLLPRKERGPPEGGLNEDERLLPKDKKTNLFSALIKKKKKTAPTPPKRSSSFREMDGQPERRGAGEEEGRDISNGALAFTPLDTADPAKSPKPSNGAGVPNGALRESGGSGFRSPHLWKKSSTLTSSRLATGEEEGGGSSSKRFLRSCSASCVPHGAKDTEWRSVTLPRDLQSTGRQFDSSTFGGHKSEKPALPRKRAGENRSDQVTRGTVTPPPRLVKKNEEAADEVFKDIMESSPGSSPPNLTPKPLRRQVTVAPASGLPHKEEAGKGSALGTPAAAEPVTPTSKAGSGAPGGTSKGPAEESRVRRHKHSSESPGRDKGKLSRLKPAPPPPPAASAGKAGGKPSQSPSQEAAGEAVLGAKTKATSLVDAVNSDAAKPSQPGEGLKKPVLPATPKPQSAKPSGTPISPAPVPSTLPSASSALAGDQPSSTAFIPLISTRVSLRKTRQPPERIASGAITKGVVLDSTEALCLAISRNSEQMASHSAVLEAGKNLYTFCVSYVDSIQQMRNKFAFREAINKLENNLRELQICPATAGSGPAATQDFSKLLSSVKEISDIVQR
# [3] = molecular target: PDGFRβ (Homo sapiens, UniProt P09619); experiment: Off-chip mobility-shift kinase assay (Caliper LABCHIP), PDGFR
# PDGFRβ, sequence (P09619 33-1106): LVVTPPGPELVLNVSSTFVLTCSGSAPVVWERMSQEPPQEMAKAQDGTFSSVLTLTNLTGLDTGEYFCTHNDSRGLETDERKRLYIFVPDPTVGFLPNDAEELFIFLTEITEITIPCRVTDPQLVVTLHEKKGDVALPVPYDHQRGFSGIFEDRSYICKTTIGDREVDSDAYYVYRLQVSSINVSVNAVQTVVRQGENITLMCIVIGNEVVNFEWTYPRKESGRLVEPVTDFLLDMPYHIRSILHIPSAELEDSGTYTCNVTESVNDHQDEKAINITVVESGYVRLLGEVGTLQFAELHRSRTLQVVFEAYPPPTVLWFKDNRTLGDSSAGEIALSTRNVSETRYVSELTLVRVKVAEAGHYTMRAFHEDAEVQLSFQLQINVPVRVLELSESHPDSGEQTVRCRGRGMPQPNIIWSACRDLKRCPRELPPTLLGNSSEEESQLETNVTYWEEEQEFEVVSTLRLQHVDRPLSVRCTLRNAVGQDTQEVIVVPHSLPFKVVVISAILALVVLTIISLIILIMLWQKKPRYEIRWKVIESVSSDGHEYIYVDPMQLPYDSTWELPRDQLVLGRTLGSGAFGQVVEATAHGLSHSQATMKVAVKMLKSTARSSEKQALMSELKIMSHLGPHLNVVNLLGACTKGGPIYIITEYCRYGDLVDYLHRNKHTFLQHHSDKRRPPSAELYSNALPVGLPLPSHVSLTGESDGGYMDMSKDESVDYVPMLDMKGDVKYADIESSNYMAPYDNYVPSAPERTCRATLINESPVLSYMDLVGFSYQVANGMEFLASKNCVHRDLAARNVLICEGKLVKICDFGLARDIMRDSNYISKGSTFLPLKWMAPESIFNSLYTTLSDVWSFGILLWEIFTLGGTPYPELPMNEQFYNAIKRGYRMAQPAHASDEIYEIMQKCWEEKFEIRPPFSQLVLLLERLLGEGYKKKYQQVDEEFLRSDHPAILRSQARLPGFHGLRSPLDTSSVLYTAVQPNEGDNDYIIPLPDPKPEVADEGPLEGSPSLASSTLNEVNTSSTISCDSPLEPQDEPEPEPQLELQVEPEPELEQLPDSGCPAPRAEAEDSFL
# [4] = Thermodynamic solubility; format: physicochemical; conditions: aqueous buffer, thermodynamic from solid; phosphate buffered saline, pH 7.4; ambient temperature overnight
# Protocol: Test compound (2.5 mg of solid; n=1) is weighed in a clear glass vial and buffer (0.5 mL) is added (phosphate buffered saline, pH 7.4). The solution is agitated at ambient temperature overnight using a vial roller system. […] Duplicate aliquots (50 μL) are sampled from the filtrate and diluted with one volume of 0.1 N hydrochloric acid and methanol (1:1 v/v) before analysis by HPLC-UV. […] The concentration of test compound in the filtrate is quantified relative to the concentration standard.
# Analysis is performed using a gradient HPLC-UV system with a total cycle time of six minutes.
# [5] = molecular target: cKIT (Homo sapiens, UniProt P10721); experiment: Off-chip mobility-shift kinase assay (Caliper LABCHIP), C-kit
# cKIT, sequence (P10721 26-976): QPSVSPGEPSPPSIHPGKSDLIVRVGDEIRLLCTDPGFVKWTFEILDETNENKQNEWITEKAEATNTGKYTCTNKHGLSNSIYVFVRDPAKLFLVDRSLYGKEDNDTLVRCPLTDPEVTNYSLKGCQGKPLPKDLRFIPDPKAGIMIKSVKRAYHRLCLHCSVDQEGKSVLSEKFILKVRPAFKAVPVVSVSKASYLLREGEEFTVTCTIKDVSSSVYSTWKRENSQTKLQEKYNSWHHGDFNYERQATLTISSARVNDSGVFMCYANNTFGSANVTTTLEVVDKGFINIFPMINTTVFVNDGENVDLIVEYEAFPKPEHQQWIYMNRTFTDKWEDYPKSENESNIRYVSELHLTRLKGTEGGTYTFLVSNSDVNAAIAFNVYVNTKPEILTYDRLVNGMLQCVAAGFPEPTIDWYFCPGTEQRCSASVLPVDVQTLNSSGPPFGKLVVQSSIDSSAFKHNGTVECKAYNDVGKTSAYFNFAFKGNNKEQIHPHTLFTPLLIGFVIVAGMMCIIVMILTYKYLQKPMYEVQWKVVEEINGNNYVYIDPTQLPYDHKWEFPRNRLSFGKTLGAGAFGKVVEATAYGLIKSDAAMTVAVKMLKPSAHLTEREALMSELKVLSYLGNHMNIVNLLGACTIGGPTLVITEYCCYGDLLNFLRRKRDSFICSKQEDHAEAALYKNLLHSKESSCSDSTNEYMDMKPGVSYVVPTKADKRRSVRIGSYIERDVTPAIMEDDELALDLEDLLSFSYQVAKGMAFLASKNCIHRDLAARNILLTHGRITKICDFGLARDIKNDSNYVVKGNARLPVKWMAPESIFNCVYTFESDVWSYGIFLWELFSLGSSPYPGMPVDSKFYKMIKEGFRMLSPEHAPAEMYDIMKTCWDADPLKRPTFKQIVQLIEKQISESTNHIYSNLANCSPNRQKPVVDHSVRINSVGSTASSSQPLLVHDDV
smiles,measurement,setting,value
COCCOCCOCCOCCOCCOCCOCCOCCOCCNCc1ccc(C(=O)Nc2ccc(C)c(Nc3nccc(-c4cccnc4)n3)c2)cc1 [mPEG9-N-Imatinib],"Papp A→B at 120 min, 10 μM","[1]; Caco-2, pH 7.4, read-out: Permeability (cm^2/s × 10^6)",0.01 ± 0.004 ×10⁻⁶ cm/s
same,"efflux ratio at 120 min, 10 μM","[1]; Caco-2, ratio of B-A and A-B permeabilities, 10 μM, 120 minutes",482
same,IC50,[2],≥ 3000 nM
same,ABL AVG % Activity at 1.0E−06,"[2]; concentration 1.0E−06, imatinib-corresponding compounds",77%
same,ABL AVG % Activity at 1.0E−07,"[2]; concentration 1.0E−07, imatinib-corresponding compounds",89%
same,ABL AVG % Activity at 1.0E−08,"[2]; concentration 1.0E−08, imatinib-corresponding compounds",97%
same,ABL AVG % Activity at 1.0E−09,"[2]; concentration 1.0E−09, imatinib-corresponding compounds",96%
same,ABL AVG % Activity at 1.0E−10,"[2]; concentration 1.0E−10, imatinib-corresponding compounds",96%
same,ABL AVG % Activity at 3.0E−06,"[2]; concentration 3.0E−06, imatinib-corresponding compounds",70%
same,ABL AVG % Activity at 3.0E−07,"[2]; concentration 3.0E−07, imatinib-corresponding compounds",85%
same,ABL AVG % Activity at 3.0E−08,"[2]; concentration 3.0E−08, imatinib-corresponding compounds",93%
same,ABL AVG % Activity at 3.0E−09,"[2]; concentration 3.0E−09, imatinib-corresponding compounds",96%
same,ABL AVG % Activity at 3.0E−10,"[2]; concentration 3.0E−10, imatinib-corresponding compounds",96%
same,IC50,[3],290 nM
same,PDGFR AVG % Activity at 1.0E−06,[3]; concentration 1.0E−06,11%
same,PDGFR AVG % Activity at 1.0E−07,[3]; concentration 1.0E−07,65%
same,PDGFR AVG % Activity at 1.0E−08,[3]; concentration 1.0E−08,83%
same,PDGFR AVG % Activity at 1.0E−09,[3]; concentration 1.0E−09,78%
same,PDGFR AVG % Activity at 1.0E−10,[3]; concentration 1.0E−10,89%
same,PDGFR AVG % Activity at 3.0E−06,[3]; concentration 3.0E−06,0%
same,PDGFR AVG % Activity at 3.0E−07,[3]; concentration 3.0E−07,38%
same,PDGFR AVG % Activity at 3.0E−08,[3]; concentration 3.0E−08,75%
same,PDGFR AVG % Activity at 3.0E−09,[3]; concentration 3.0E−09,100%
same,PDGFR AVG % Activity at 3.0E−10,[3]; concentration 3.0E−10,86%
same,solubility,[4],2700 µg/mL
same,IC50,[5],1600 nM
same,C-kit AVG % Activity at 1.0E−05,[5]; concentration 1.0E−05,9%
same,C-kit AVG % Activity at 1.0E−06,[5]; concentration 1.0E−06,62%
same,C-kit AVG % Activity at 1.0E−07,[5]; concentration 1.0E−07,93%
same,C-kit AVG % Activity at 1.0E−08,[5]; concentration 1.0E−08,98%
same,C-kit AVG % Activity at 3.0E−05,[5]; concentration 3.0E−05,2%
same,C-kit AVG % Activity at 3.0E−06,[5]; concentration 3.0E−06,32%
same,C-kit AVG % Activity at 3.0E−07,[5]; concentration 3.0E−07,81%
same,C-kit AVG % Activity at 3.0E−08,[5]; concentration 3.0E−08,99%
same,C-kit AVG % Activity at 3.0E−09,[5]; concentration 3.0E−09,99%
